Data as given in ChEMBL document CHEMBL1126407, “-Lactam peptides as potential inhibitors of the HIV gp120-CD4 interaction” (Bioorg Med Chem Lett, 1992).
Activity calls are given as the source filed them. No cut-off for these calls is given here.

Tests used:
[1] = molecular target: Envelope glycoprotein gp160 (Human immunodeficiency virus type 1 group M subtype B (isolate HXB2)(HIV-1)) (UniProt P04578); assay: Tested for inhibition of HIV CD4-gp120 interaction in an ELISA based binding assay using recombinant gp120 and soluble CD4 up to a concentration of 550 uM; No inhibition
[2] = molecular target: Envelope glycoprotein gp160 (Human immunodeficiency virus type 1 group M subtype B (isolate HXB2)(HIV-1)) (UniProt P04578); assay: Tested for inhibition of HIV CD4-gp120 interaction in an ELISA based binding assay using recombinant gp120 and soluble CD4 up to a concentration of 350 uM; No inhibition
[3] = molecular target: Envelope glycoprotein gp160 (Human immunodeficiency virus type 1 group M subtype B (isolate HXB2)(HIV-1), UniProt P04578); assay: Tested for inhibition of HIV gp120-CD4 interaction in an ELISA based binding assay using recombinant CD4-gp120

inhibition [2] | Structure (SMILES) | further results
– | COC(=O)[C@H](Cc1ccccc1)NC(=O)[C@H]1/C(=C/CO)O[C@@H]2CC(=O)N21 | inhibition [1]: inactive
inactive | CC(C)C[C@H](NC(=O)[C@H](Cc1ccccc1)NC(=O)[C@H]1/C(=C/CO)O[C@@H]2CC(=O)N21)C(=O)OCc1ccccc1 | –
– | COC(=O)C(=O)N1CCC[C@@H]1C(=O)N[C@H](Cc1ccccc1)C(=O)OCc1ccccc1 | IC50 [3]: 250 µM
inactive | COC(=O)[C@H](Cc1ccccc1)NC(=O)[C@@H]1N2C(=O)[C@@H](N)[C@H]2SC1(C)C | –
